Source: patent publication US20190225985A1, “Enhancing Bacillus Thuringiensis CRY Insecticidal Activity With a Chaperone” (Universidad Nacional Autónoma de México, priority 2016, published 2019)
Like-named read-outs stand apart in the source and are kept apart here.

Columns and labels:
[1] = test system: Plutella xylostella larvae; conditions: soluble protoxin; taken from reference 16; cited from earlier work
Hsp70 = experiment: ELISA binding assay of Hsp70 to Cry toxins; set-up: species or system Plutella xylostella; conditions: coated protoxin, different concentrations of Hsp70, FIG. 5
Experimental: (§1) The binding of Hsp90 or Hsp70 to Cry1Ab and Cry1AbMod protoxins was analyzed by ELISA binding assays. […] More specifically, 50 μl of 40 nM of each protoxin in binding buffer (100 mM carbonate pH 9.5) was used to coat ELISA 96 well plates. ELISA plates were incubated overnight at 4° C. After removing the protoxin solution, the plate was blocked with blocking-buffer (1% BSA in PBS 1X) for 1 hr at room temperature. […] The plate was washed three times with washing buffer (PBS 1X) and then 50 μl of a 1/10,000 dilution of anti-polyHistidine-Peroxidase conjugate (Sigma-Aldrich) was added to each well and incubated for 1 hr at 30° C. The reaction was developed with 50 μl of ortophenylenediamine in a substrate buffer (100 mM K3PO4; pH 5) in a final concentration of 1 mg/ml and […] of peroxide oxide. The reaction was stopped by adding 25 μl of HCl, 6N. The plates were read on microtiter plate reader at OD 490 nm.
(§2) Data represent means of 8 wells and each experiment was repeated two times. The statistical calculations (mean and standard deviation) and graphics were performed using the Microsoft Excel Program.

[2] = test system: Plutella xylostella larvae; type: in vivo; conditions: for effect of Hsp90 on toxicity: protoxin at about 10% mortality, increasing Hsp90, FIG. 1
Experimental: The hsp90 and hsp70 genes from the lepidopteran insect Plutella xylostella and the GroEL gene from Alcaligenes faecalis were cloned into an expression vector for production in E. coli cells. P. xylostella is a pest of cruciferous crops worldwide, is susceptible to Cry1A toxins and has evolved resistance to Cry1Ac and Cry1Ab in field conditions^18. To determine the effect of Hsp90, Hsp70 or GroEL on Cry1Ab and Cry1Ac toxicity, bioassays were performed against P. xylostella larvae using a protoxin concentration that would produce around 10% mortality in the presence of increasing amounts of Hsp90, Hsp70 or GroEL.
Bioassays were performed with 24 third instar larvae of P. xylostella using 24 wells plates. Larval diet was surface contaminated with different concentrations of Cry1A protoxin plus Hsp90 or Hsp70 or protoxin alone without any chaperone. The samples containing protoxin and Hsp90 were previously incubated for 30 min at 37° C. in Hsp90 buffer (1 mM Mg, 1 mMATP, in PBS1X). Each experiment was performed in triplicate (72 larvae per treatment). Mortality was assessed after 7 days. The statistical calculations (mean and standard deviation) and graphics were performed using the Microsoft Excel Program. Negative control diet was surface contaminated with the highest Hsp90 concentration without Cry1A protoxin to test the possible toxic effect of the protein or the buffer itself.
In the case where the LC50 was calculated, increasing concentrations of protoxin plus Hsp90 (in the protein relation indicated in the table) was used to surface contaminate diet in 24-well plates. These experiments were performed in triplicate. Mortality was assessed after 7 days and the effective dose was calculated using Probit analysis (Polo-PC LeOra Software).

Hsp90 = experiment: ELISA binding assay of Hsp90 to Cry toxins; set-up: species or system Plutella xylostella; conditions: for binding of Hsp90 to toxin (ELISA): coated protoxin, serial dilutions of Hsp90, FIG. 4A-E
Experimental: as §1, §2

[3] = test system: M. sexta brush border membrane vesicles (BBMV); experiment: Oligomerization of Cry1Ab with brush border membrane vesicles in the presence of Hsp90, Western blot; type: biochemical
Experimental: Oligomerization of Cry1Ab. Brush border membrane vesicles (BBMV) were prepared using M. sexta midgut tissues from third instar larvae by the magnesium precipitation method without protease inhibitors^21 and suspended in 50 mM Na2CO3, pH 9, and stored at −70° C. until used. The BBMV protein concentrations were determined with the Lowry DC protein assay (BioRad, Hercules, Calif.) using bovine serum albumin as a standard. Fifteen μg or 30 μg of Hsp90 were incubated with 1 μg Cry1Ab toxin or protoxin in the presence of Hsp90 buffer. Control samples contained Cry1Ab proteins without Hsp90. Cry1Ab oligomerization was analyzed after incubation of 1 μg of Cry1Ab toxin or protoxin with 10 μg of BBMV protein for 1 h at 37° C. in a total volume of […] alkaline buffer, pH 10.5. BBMV were recovered by a 30 min centrifugation at 60,000 rpm at 4° C. The pellet was washed once with 100 μl of alkaline buffer by centrifugation, and suspended in 60 μl of the same buffer. Laemmli sample buffer 4X was added and the sample was incubated three min at 50° C. Samples were separated in 8% SDS-PAGE, electro transferred to PVDF membrane and Cry1Ab proteins were detected by Westernblot as described above.

[4] = excess of 500 μg per well of Hsp90

Hsp90, sequence (as listed by the source): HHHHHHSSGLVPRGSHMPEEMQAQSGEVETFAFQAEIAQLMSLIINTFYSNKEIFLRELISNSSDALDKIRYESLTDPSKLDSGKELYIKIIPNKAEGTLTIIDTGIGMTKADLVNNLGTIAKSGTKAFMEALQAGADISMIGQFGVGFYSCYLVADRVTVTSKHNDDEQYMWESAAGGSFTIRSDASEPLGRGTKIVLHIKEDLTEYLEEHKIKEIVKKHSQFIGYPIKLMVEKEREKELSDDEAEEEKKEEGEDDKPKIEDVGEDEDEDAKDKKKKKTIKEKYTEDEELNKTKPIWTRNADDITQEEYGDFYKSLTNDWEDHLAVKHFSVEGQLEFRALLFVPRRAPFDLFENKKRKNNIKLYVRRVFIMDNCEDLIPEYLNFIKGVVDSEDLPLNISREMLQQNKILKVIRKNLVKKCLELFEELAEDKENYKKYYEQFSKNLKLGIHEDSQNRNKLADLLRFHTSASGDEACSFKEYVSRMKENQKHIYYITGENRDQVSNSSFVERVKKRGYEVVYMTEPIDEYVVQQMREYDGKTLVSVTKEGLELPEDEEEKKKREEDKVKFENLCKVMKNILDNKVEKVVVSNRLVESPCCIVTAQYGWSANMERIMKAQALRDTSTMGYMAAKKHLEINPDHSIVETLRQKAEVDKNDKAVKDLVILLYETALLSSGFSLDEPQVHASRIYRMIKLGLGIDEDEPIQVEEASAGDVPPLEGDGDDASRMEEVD
Hsp70, sequence (as listed by the source): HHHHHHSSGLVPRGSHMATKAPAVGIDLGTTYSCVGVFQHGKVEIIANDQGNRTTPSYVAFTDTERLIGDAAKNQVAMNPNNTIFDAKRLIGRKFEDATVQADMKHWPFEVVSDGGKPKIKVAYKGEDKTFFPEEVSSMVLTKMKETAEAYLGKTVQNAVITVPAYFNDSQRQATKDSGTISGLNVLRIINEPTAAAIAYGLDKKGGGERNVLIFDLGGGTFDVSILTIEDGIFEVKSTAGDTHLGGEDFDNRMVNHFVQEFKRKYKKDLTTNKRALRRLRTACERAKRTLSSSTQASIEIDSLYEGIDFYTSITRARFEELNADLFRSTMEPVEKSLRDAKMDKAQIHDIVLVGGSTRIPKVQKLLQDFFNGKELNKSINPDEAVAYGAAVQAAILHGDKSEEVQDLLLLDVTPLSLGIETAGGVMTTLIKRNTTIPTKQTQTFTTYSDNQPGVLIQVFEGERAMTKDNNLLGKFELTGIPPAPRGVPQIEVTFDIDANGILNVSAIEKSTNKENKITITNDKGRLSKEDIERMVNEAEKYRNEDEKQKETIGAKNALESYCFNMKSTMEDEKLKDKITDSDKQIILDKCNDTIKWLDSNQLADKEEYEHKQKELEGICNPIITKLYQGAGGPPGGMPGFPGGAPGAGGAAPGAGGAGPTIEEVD

Substance | LC50 [1] | binding of Hsp70 to toxin (ELISA) (Hsp70) | mortality ([2]; 100 ng per well of Hsp70) | mortality ([2]; 200 ng per well of Hsp90) | mortality ([2]; GroEL 100 ng per well) | mortality ([2]; excess of 200 μg per well of GroEL) | mortality ([2]; excess of 200 μg per well of Hsp70) | mortality [2, 4] | effect of GroEL on toxicity ([2]; increasing GroEL, FIG. 3) | effect of Hsp70 on toxicity ([2]; increasing Hsp70, FIG. 2) | effect of Hsp90 on toxicity [2] | binding of Hsp90 to Cry1Ac (Hsp90; 100 nM Hsp90, absence of ATP (FIG. 4F lane 2)) | binding of Hsp90 to toxin (ELISA) (Hsp90) | yield of the 250 kDa Cry1Ab oligomer ([3]; from Cry1Ab protoxin) | yield of the 250 kDa Cry1Ab oligomer ([3]; from Cry1Ab toxin)
Cry1Ac | 0.71 ng/well | bound | 80% | 80% | 80% | 100% | 100% | 100% | enhanced in concentration dependent manner | enhanced in an Hsp70 concentration dependent manner | enhanced in an Hsp90 concentration dependent manner | significantly reduced | bound | – | –
Cry1Ab | 4.69 ng/well | bound | – | 80% | – | – | – | 100% | – | – | enhanced in an Hsp90 concentration dependent manner | – | bound | significantly enhanced | significantly enhanced
